Source: ChEMBL document CHEMBL1671824, “Synthesis and Evaluation of Fluorinated Aporphines: Potential Positron Emission Tomography Ligands for D2 Receptors” (ACS Med Chem Lett, 2011)

Experiments:
D(3) dopamine receptor [1] = target: T1, D(3) dopamine receptor (Homo sapiens, UniProt P35462); test: Displacement of [3H]domperidone from human cloned dopamine D3 receptor high binding site expressed in mouse CCL1-3 cells by scintillation counting; assay type: cell-based
D(1A) dopamine receptor [2] = target: T2, D(1A) dopamine receptor (Rattus norvegicus, UniProt P18901); test: Binding affinity to dopamine D1 receptor high binding site by radioligand displacement assay
T2 sequence (P18901 whole entry): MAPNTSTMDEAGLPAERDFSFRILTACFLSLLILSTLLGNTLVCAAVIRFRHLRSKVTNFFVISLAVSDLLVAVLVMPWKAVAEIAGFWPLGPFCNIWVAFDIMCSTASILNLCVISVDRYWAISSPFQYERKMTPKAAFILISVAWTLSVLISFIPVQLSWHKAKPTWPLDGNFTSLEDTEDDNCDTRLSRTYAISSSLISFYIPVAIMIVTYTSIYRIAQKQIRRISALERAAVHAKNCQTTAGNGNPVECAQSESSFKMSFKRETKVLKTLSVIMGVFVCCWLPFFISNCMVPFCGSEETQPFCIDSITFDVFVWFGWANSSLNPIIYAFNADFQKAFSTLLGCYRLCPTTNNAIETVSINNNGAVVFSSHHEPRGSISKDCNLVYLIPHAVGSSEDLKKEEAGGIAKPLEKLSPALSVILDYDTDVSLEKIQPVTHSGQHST

D(3) dopamine receptor [3] = target: T1, D(3) dopamine receptor; test: Displacement of [3H]domperidone from human cloned dopamine D3 receptor expressed in mouse CCL1-3 cells by scintillation counting; assay type: cell-based
D(1A) dopamine receptor [4] = target: T2, D(1A) dopamine receptor; test: Binding affinity to dopamine D1 receptor low binding site by radioligand displacement assay
D(3) dopamine receptor [5] = target: T1, D(3) dopamine receptor; test: Displacement of [3H]domperidone from human dopamine D3 receptor expressed in human HEK293 cells by scintillation counting; assay type: cell-based
D(2) dopamine receptor = D(2) dopamine receptor (Rattus norvegicus, UniProt P61169); test: Displacement of [3H]domperidone from dopamine D2 receptor low binding site in Sprague-Dawley rat striatum by scintillation counting
Chain of D(2) dopamine receptor (P61169 whole entry): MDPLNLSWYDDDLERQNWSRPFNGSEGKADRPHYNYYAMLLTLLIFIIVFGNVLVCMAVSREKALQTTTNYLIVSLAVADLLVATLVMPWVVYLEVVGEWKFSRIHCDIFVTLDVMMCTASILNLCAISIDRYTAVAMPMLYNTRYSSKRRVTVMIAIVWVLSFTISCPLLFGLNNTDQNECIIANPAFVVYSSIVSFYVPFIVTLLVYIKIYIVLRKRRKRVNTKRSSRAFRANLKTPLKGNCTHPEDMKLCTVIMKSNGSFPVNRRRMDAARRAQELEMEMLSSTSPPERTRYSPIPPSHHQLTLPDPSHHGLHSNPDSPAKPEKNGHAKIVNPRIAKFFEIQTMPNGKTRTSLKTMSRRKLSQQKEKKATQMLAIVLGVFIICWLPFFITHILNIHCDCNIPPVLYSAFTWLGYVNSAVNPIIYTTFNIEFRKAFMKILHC

T1 sequence (P35462 whole entry): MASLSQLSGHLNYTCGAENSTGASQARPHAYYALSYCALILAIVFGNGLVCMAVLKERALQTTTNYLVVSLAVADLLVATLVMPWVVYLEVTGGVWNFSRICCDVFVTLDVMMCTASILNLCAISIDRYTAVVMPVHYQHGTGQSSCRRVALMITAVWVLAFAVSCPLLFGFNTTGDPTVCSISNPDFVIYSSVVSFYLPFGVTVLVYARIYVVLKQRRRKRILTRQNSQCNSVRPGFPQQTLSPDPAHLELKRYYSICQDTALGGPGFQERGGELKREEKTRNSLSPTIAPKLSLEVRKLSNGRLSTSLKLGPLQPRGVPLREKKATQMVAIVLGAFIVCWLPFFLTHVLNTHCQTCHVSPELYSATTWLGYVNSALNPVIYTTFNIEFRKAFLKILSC

Row | SMILES | Ki (D(3) dopamine receptor [1]) [µM] | Ki (D(1A) dopamine receptor [2]) | Ki (D(3) dopamine receptor [3]) [µM] | Ki (D(1A) dopamine receptor [4]) [µM] | Ki (D(3) dopamine receptor [5]) [µM] | Ki (D(2) dopamine receptor) [µM]
1 | CCN1CCc2cc(OCCCF)cc3c2[C@H]1Cc1ccc(O)c(O)c1-3 | 0.23 | Not Active | > 10 | > 5 | – | –
2 | CCCN1CCc2cccc3c2[C@H]1Cc1cccc(O)c1-3 | 0.0012 | Not Active | – | – | – | –
3 | CCCN1CCc2cc(OCCF)cc3c2[C@H]1Cc1ccc(O)c(O)c1-3 | 0.0019 | Not Active | – | > 5 | – | –
4 | CCN1CCc2cc(OCCF)cc3c2[C@H]1Cc1cccc(O)c1-3 | – | Not Active | – | > 5 | – | –
5 | CCCN1CCc2cc(F)cc3c2[C@H]1Cc1ccc(O)c(O)c1-3 | 0.0038 | Not Active | > 10 | > 5 | – | –
6 | Oc1cccc2c1-c1cccc3c1[C@@H](C2)N(CCCF)CC3 | – | Not Active | – | > 5 | – | –
7 | CN1CCc2cc(OCCF)cc3c2[C@H]1Cc1cccc(O)c1-3 | – | Not Active | – | – | – | –
8 | CCN1CCc2cc(OCCCF)cc3c2[C@H]1Cc1cccc(O)c1-3 | – | Not Active | – | > 5 | – | –
9 | CCCN1CCc2cc(OCCF)cc3c2[C@H]1Cc1cccc(O)c1-3 | – | Not Active | – | > 5 | – | –
10 | CCCN1CCc2cc(OCCCF)cc3c2[C@H]1Cc1cccc(O)c1-3 | – | Not Active | – | > 5 | – | –
11 | CN1CCc2cc(OCCF)cc3c2[C@H]1Cc1ccc(O)c(O)c1-3 | – | Not Active | > 10 | 3.7 | – | –
12 | CCCN1CCc2cc(OCCCF)cc3c2[C@H]1Cc1ccc(O)c(O)c1-3 | 0.0011 | Not Active | – | > 5 | – | –
13 | CCN1CCc2cc(OCCF)cc3c2[C@H]1Cc1ccc(O)c(O)c1-3 | 0.25 | Not Active | > 10 | > 5 | – | –
14 | CCCN1CCc2cc(OC)cc3c2[C@H]1Cc1ccc(O)c(O)c1-3 | – | – | – | > 5 | 0.00102 | –
15 | CN1CCc2cc(OCCCF)cc3c2[C@H]1Cc1ccc(O)c(O)c1-3 | – | Not Active | > 10 | > 5 | – | > 10
16 | CCCN1CCc2cc(OC)cc3c2[C@H]1Cc1cccc(O)c1-3 | 0.13 | Not Active | > 10 | – | – | –
